Assays:
Assay type in all cases: in vivo
Lolium multiflorum [1] = assay: Pre-emergence herbicidal effect; settings: 320 g/ha, scored visually after 3 weeks vs untreated controls, 100% = plants have died
Excerpt: (§1) Seeds of monocotyledonous and dicotyledonous weed plants and crop plants are laid out in sandy loam soil in wood-fibre pots and covered with soil. The compounds of the invention, formulated in the form of wettable powders (WP) or as emulsion concentrates (EC), are then applied to the surface of the covering soil as aqueous suspension or emulsion at a water application rate equating to 600 to 800 L/ha with addition of 0.2% wetting agent. After the treatment, the pots are placed in a greenhouse and kept under good growth conditions for the trial plants. The damage to the test plants is scored visually after a test period of 3 weeks by comparison with untreated controls (herbicidal activity in percent (%): 100% activity=the plants have died, 0% activity=like control plants). LOLMU: Lolium multiflorum

Alopecurus myosuroides [2] = assay: Pre-emergence herbicidal effect; settings: 320 g/ha, scored visually after 3 weeks vs untreated controls, 100% = plants have died
Excerpt: as §1, with “ALOMY: Alopecurus myosuroides” for “LOLMU: Lolium multiflorum”

Setaria viridis [3] = assay: Post-emergence herbicidal effect; settings: one-leaf stage, 320 g/ha, assessed visually after about 3 weeks, 100% = plants have died
Description: (§2) SETVI: Setaria viridis Seeds of monocotyledonous and dicotyledonous weed and crop plants are laid out in sandy loam soil in wood-fibre pots, covered with soil and cultivated in a greenhouse under good growth conditions. 2 to 3 weeks after sowing, the test plants are treated at the one-leaf stage. The compounds of the invention, formulated in the form of wettable powders (WP) or as emulsion concentrates (EC), are then sprayed onto the green parts of the plants as aqueous suspension or emulsion at a water application rate equating to 600 to 800 L/ha with addition of 0.2% wetting agent. After the test plants have been left to stand in the greenhouse under optimal growth conditions for about 3 weeks, the action of the preparations is assessed visually in comparison to untreated controls (herbicidal action in percent (%): 100% activity=the plants have died, 0% activity=like control plants).

Alopecurus myosuroides [4] = assay: Post-emergence herbicidal effect; settings: one-leaf stage, 320 g/ha, assessed visually after about 3 weeks, 100% = plants have died
Description: as §2, with “ALOMY: Alopecurus myosuroides” for “SETVI: Setaria viridis”

Lolium multiflorum [5] = assay: Post-emergence herbicidal effect; settings: one-leaf stage, 320 g/ha, assessed visually after about 3 weeks, 100% = plants have died
Description: as §2, with “LOLMU: Lolium multiflorum” for “SETVI: Setaria viridis”

Avena fatua [6] = assay: Post-emergence herbicidal effect; settings: one-leaf stage, 320 g/ha, assessed visually after about 3 weeks, 100% = plants have died
Description: as §2, with “AVEFA: Avena fatua” for “SETVI: Setaria viridis”

Echinochloa crus-galli [7] = assay: Post-emergence herbicidal effect; settings: one-leaf stage, 320 g/ha, assessed visually after about 3 weeks, 100% = plants have died
Description: as §2, with “ECHCG: Echinochloa crus-galli” for “SETVI: Setaria viridis”

Echinochloa crus-galli [8] = assay: Pre-emergence herbicidal effect; settings: 320 g/ha, scored visually after 3 weeks vs untreated controls, 100% = plants have died
Excerpt: as §1, with “ECHCG: Echinochloa crus-galli” for “LOLMU: Lolium multiflorum”

Avena fatua [9] = assay: Pre-emergence herbicidal effect; settings: 320 g/ha, scored visually after 3 weeks vs untreated controls, 100% = plants have died
Excerpt: as §1, with “AVEFA: Avena fatua” for “LOLMU: Lolium multiflorum”

Setaria viridis [10] = assay: Pre-emergence herbicidal effect; settings: 320 g/ha, scored visually after 3 weeks vs untreated controls, 100% = plants have died
Excerpt: as §1, with “SETVI: Setaria viridis” for “LOLMU: Lolium multiflorum”

Row | SMILES | Pre-emergence action LOLMU (herbicidal activity in percent) (Lolium multiflorum [1]) [%] | Pre-emergence action ALOMY (herbicidal activity in percent) (Alopecurus myosuroides [2]) [%] | Post-emergence effectiveness SETVI (herbicidal action in percent) (Setaria viridis [3]) [%] | Post-emergence effectiveness ALOMY (herbicidal action in percent) (Alopecurus myosuroides [4]) [%] | Post-emergence effectiveness LOLMU (herbicidal action in percent) (Lolium multiflorum [5]) [%] | Post-emergence effectiveness AVEFA (herbicidal action in percent) (Avena fatua [6]) [%] | Post-emergence effectiveness ECHCG (herbicidal action in percent) (Echinochloa crus-galli [7]) [%] | Pre-emergence action ECHCG (herbicidal activity in percent) (Echinochloa crus-galli [8]) [%] | Pre-emergence action AVEFA (herbicidal activity in percent) (Avena fatua [9]) [%] | Pre-emergence action SETVI (herbicidal activity in percent) (Setaria viridis [10]) [%]
1 | Cc1cc(C)c(C2=C(O)C3COCCCN3C2=O)c(C)c1 (racemic) [Ia-2-1] | 100 | 80 | 100 | 100 | 100 | 100 | 100 | – | – | –
2 | CCc1cc(C)cc(CC)c1C1=C(O)C2COCCCN2C1=O (racemic) [Ia-2-2] | 100 | 80 | 100 | 100 | 100 | 100 | 100 | 100 | 90 | 100
3 | Cc1cc(C)c(C2=C(O)C3=CCOCCN3C2=O)c(C)c1 [Ia-3-1] | – | – | – | – | – | 80 | 90 | – | – | –
4 | CCc1cc(C)cc(C)c1C1=C(O)C2=CCOCCN2C1=O [Ia-3-2] | – | – | – | – | – | 100 | 100 | – | – | –
5 | CCc1cccc(C)c1C1=C(OC(C)=O)C2CCOCCN2C1=O (centres unmarked) [Ib-1-15] | 100 | 100 | 100 | 100 | 100 | 100 | 100 | 100 | – | 100
6 | CCOC(=O)OC1=C(c2c(CC)cc(Cl)cc2OC)C(=O)N2CCOCCC12 (centres unmarked) [Ib-1-17] | – | 100 | 100 | 100 | 100 | 100 | 100 | 100 | 100 | 100
7 | CCc1cc(C)cc(C)c1C1=C(OC(C)=O)C2=CCOCCN2C1=O [Ib-3-4] | – | – | 100 | 90 | 80 | 80 | 90 | – | – | –
8 | CCc1cc(Cl)cc(OC)c1C1=C(OC(=O)C(C)(C)C)C2=CCOCCN2C1=O [Ib-3-10] | 100 | 90 | 100 | 100 | 100 | 100 | 100 | 100 | – | 100
